Data as given in ChEMBL document CHEMBL1141528, “Identification of pyrrolo[2,1-f][1,2,4]triazine-based inhibitors of Met kinase” (Bioorg Med Chem Lett, 2008).
pIC50: −log10 of the molar value. In brackets after ≈: the same amount, converted by molar mass.

Legend:
[1] = Antiproliferative activity against human GTL16 cells after 72 hrs by tetrazolium-based colorimetric assay; settings: GTL 16, 72 h
[2] = Aqueous solubility at pH 6.5; assay type: physicochemical
Liver = assay: Metabolic stability in mouse liver microsomes; assay type: ADME, Microsome
[3] = Metabolic stability per 10^6 cells in mouse hepatocytes; assay type: ADME, cell-based, Hepatocyte
[4] = Clearance in mouse at 20 mg/kg, iv; assay type: ADME, organism-based; parameters: dose 20 mg/kg, route intravenous; settings: in vivo
[5] = Bioavailability in mouse at 20 mg/kg, ip; assay type: ADME, organism-based; settings: in vivo
[6] = Cmax in mouse at 50 mg/kg, po; assay type: ADME, organism-based; parameters: dose 50 mg/kg, route oral; settings: in vivo
[7] = Permeability across human Caco-2 cells; assay type: ADME, cell-based; settings: read-out: permeability
[8] = target: Insulin-like growth factor 1 receptor (Homo sapiens, UniProt P08069); assay: Inhibition of IGF1R
Insulin receptor = Insulin receptor (Homo sapiens, UniProt P06213); assay: Inhibition of InsR
Insulin receptor, sequence (P06213 28-758 limits assumed): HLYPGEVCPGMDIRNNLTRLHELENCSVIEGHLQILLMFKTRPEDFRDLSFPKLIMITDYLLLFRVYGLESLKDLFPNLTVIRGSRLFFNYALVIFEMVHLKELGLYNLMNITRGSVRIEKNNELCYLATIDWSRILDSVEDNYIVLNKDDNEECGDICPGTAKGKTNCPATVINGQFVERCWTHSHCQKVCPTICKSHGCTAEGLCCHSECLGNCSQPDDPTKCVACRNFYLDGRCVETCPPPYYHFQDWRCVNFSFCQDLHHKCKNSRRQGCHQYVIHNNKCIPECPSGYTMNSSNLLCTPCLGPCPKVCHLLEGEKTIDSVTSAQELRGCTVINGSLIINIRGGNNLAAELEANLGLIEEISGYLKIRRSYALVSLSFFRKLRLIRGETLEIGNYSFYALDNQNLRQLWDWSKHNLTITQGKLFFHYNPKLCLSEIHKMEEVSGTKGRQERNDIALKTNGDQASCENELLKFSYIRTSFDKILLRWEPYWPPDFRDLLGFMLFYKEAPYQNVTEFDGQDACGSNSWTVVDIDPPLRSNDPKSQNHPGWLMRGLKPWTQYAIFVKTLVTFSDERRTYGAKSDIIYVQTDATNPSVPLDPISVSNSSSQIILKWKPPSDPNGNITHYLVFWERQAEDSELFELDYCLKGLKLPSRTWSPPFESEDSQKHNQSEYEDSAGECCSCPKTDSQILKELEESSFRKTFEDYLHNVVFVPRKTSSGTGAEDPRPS
Insulin receptor, sequence (P06213 763-1382 limits assumed): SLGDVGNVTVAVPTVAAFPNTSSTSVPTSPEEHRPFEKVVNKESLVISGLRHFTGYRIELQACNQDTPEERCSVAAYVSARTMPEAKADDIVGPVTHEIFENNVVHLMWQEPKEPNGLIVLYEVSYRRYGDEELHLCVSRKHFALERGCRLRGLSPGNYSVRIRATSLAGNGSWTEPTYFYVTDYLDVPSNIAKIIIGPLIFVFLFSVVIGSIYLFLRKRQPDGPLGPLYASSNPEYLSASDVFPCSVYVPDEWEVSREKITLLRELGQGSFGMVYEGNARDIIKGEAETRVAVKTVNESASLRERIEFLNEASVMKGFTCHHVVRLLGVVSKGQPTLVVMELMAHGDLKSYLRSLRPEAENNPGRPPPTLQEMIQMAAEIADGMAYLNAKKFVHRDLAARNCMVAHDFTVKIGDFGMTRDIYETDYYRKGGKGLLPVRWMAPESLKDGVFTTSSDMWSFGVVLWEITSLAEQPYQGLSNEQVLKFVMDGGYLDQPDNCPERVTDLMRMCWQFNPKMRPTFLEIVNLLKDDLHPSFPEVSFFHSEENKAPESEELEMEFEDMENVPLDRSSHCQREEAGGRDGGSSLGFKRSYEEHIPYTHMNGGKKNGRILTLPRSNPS

[9] = target: Vascular endothelial growth factor receptor 2 (Homo sapiens, UniProt P35968); assay: Inhibition of VEGFR2
Vascular endothelial growth factor receptor 2, sequence (P35968 whole entry): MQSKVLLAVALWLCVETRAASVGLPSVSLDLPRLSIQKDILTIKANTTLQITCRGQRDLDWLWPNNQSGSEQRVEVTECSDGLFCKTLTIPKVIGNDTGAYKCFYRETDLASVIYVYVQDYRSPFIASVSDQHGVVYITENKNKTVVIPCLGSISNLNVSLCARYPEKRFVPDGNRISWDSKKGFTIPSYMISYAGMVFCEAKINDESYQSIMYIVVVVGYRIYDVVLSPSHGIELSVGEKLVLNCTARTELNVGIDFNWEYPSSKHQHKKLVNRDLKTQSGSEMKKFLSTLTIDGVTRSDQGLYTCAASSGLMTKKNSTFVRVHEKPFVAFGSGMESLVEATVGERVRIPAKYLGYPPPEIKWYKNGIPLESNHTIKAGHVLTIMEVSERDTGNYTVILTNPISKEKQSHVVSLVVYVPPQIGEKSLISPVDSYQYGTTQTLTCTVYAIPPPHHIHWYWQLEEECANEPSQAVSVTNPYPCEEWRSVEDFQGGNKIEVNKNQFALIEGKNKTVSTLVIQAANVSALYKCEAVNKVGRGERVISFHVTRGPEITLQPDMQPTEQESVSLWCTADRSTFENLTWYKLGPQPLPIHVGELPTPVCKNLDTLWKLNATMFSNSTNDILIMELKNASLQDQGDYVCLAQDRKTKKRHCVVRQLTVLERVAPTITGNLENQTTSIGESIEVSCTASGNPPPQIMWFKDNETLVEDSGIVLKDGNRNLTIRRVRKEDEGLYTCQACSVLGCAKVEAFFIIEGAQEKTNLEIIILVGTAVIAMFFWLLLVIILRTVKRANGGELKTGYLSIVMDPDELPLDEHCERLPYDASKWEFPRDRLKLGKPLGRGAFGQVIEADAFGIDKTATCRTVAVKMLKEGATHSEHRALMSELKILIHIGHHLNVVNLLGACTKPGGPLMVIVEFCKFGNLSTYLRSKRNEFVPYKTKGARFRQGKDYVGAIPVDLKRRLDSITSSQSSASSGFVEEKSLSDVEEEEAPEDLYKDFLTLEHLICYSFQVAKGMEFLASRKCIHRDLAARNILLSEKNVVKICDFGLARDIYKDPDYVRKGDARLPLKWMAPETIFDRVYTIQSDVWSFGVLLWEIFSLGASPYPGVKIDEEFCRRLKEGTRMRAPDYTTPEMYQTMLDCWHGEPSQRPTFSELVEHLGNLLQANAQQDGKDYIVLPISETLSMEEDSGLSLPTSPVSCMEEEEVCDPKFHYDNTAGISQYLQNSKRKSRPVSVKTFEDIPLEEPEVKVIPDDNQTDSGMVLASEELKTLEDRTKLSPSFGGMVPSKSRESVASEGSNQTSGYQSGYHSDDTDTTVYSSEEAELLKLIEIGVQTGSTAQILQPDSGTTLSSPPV

[10] = target: Cyclin-dependent kinase 2 (Homo sapiens, UniProt P24941); assay: Inhibition of CDK2
[11] = Inhibition of PKC
[12] = Inhibition of PKA
[13] = target: Receptor tyrosine-protein kinase erbB-2 (Homo sapiens, UniProt P04626); assay: Inhibition of HER2
Receptor tyrosine-protein kinase erbB-2, sequence (P04626 whole entry): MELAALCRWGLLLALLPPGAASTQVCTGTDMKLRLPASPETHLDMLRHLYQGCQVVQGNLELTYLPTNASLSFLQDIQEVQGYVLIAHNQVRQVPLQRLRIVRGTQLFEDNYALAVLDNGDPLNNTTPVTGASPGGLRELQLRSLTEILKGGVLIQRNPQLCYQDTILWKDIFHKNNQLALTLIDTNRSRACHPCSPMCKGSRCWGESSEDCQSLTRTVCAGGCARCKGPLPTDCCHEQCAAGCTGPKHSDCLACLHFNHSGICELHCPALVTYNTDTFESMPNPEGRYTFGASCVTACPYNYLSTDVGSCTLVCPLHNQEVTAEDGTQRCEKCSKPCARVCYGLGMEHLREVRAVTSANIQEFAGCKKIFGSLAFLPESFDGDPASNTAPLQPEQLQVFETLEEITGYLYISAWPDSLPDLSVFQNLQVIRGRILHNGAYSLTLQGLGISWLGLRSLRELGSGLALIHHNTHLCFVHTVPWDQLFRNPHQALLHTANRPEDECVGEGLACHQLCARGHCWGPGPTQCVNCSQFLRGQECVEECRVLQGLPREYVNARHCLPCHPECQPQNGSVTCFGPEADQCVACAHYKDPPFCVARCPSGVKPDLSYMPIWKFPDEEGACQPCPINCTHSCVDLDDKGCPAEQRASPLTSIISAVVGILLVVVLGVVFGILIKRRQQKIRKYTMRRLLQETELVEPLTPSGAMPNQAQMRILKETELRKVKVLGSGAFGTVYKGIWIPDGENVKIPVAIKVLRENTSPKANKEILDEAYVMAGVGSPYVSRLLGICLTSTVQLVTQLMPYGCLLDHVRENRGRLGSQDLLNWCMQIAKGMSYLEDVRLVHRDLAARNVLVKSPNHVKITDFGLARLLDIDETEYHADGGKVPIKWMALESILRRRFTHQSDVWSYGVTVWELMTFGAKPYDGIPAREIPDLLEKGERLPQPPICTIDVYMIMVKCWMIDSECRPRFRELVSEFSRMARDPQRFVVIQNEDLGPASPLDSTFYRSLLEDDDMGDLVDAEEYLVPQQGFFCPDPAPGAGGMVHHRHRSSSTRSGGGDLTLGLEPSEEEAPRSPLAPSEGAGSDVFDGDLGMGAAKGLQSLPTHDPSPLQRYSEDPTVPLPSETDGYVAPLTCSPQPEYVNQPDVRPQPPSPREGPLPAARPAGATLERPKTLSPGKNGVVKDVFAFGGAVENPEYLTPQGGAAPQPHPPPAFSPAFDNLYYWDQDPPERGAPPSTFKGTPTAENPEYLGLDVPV

[14] = target: MAP kinase-activated protein kinase 2 (Homo sapiens, UniProt P49137); assay: Inhibition of MK2
MAP kinase-activated protein kinase 2, sequence (P49137 whole entry): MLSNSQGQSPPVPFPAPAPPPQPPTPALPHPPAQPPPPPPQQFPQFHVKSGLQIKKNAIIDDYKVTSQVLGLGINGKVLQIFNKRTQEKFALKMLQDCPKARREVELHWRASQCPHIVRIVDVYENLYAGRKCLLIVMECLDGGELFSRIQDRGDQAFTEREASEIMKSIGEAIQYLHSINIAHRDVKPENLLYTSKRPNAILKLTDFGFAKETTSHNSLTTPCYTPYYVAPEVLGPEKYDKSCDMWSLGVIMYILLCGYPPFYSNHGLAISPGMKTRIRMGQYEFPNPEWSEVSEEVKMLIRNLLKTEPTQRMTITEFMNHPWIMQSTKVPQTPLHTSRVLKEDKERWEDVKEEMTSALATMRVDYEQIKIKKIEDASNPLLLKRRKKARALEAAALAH

[15] = target: High affinity nerve growth factor receptor (Homo sapiens, UniProt P04629); assay: Inhibition of TrkA
[16] = target: Tyrosine-protein kinase Lck (Homo sapiens, UniProt P06239); assay: Inhibition of lck
Tyrosine-protein kinase Lck, sequence (P06239 whole entry): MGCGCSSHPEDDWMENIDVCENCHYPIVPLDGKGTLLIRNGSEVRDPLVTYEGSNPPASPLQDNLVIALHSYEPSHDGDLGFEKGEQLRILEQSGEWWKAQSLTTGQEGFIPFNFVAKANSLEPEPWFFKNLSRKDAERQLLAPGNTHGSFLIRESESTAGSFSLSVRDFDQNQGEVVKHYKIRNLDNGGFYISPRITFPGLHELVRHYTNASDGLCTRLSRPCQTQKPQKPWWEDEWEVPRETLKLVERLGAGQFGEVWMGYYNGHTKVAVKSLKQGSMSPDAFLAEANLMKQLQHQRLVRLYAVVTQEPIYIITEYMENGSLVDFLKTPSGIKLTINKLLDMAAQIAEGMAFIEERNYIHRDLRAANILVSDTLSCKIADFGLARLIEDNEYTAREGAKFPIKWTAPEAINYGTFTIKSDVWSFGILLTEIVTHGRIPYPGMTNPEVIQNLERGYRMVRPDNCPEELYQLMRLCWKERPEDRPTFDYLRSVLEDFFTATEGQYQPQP

[17] = target: Hepatocyte growth factor receptor (Homo sapiens, UniProt P08581); assay: Inhibition of human recombinant c-Met expressed in insect cell-baculovirus expression system

`Cc1c(OCCN2CCN(C)CC2)cn2ncnc(Oc3ccc(NC(=O)c4cc(Cl)ccc4F)cc3F)c12` gave a pIC50 [1] of 6.57.
With `O=C(Cc1ccc(F)cc1)NC(=O)Nc1ccc(Oc2ncnn3ccc(CN4CCNCC4)c23)c(F)c1` the solubility [2] was 290 µg/mL (≈ 556 µM).
Work on `NC1CCN(Cc2ccn3ncnc(Oc4ccc(NC(=O)NC(=O)Cc5ccc(F)cc5)cc4F)c23)CC1` yielded a Stability (Liver) of 0 nmol/min/mg, a Stability [3] of 2 pmol/min and a clearance [4] of 25 mL/min/kg. For the same compound, the bioavailability [5] was 81%, the Cmax [6] was 780 nM and the Papp [7] was < 1.5 ×10⁻⁶ cm/s. The pIC50 [8] was < 5.30, the pIC50 (Insulin receptor) was < 5.30 and the pIC50 [9] was < 5.30. For the same compound, the pIC50 [10] was < 5.30, the pIC50 [11] was < 5.30 and the pIC50 [12] was < 5.30. The pIC50 [13] was < 5.30, the pIC50 [14] was < 5.30 and the pIC50 [15] was 6.70. The pIC50 [16] was < 5.30.
For `NC1CCC(=Cc2ccn3ncnc(Oc4ccc(NC(=O)NC(=O)Cc5ccc(F)cc5)cc4F)c23)CC1` (stereo unspecified), the pIC50 [1] was 6.85.
`Cc1c(OCCCN(C)C)cn2ncnc(Oc3ccc(NC(=O)CC(=O)Nc4ccc(F)cc4)cc3F)c12` gave a pIC50 [1] of 6.57.
For `O=C(Cc1ccc(F)cc1)NC(=O)Nc1ccc(Oc2ncnn3ccc(Cl)c23)c(F)c1`, the pIC50 [17] was < 5.70.
Work on `Cc1c(OCCN2CCN(C)CC2)cn2ncnc(Oc3ccc(NC(=O)c4ccccc4F)cc3F)c12` yielded a pIC50 [1] of 6.08.
With `Cc1c(OCCN2CCN(C)CC2)cn2ncnc(Oc3ccc(NC(=O)c4cc(F)ccc4F)cc3F)c12` the pIC50 [1] was < 6.00.
For `Cc1c(OCCN2CCN(C)CC2)cn2ncnc(Oc3ccc(NC(=O)c4c(F)cccc4F)cc3F)c12`, the pIC50 [1] was < 6.00.
With `Cc1c(OCCCN(C)C)cn2ncnc(Oc3ccc(NC(=O)c4c(F)cccc4F)cc3F)c12` the pIC50 [1] was 6.77.
With `Cc1c(OCCCN(C)C)cn2ncnc(Oc3ccc(NC(=O)NC(=O)Cc4ccc(F)cc4)cc3F)c12` the pIC50 [1] was 7.17.
